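Results reflect a 48-hour exposure of cells in 96-well plates to compound at five concentrations. GI50 is the concentration that inhibits growth by half.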 Calls of active or inactive are those of the source. Rule as the data show it: active = GI50 up to about 1.1 µM and inactive = higher.
Tests used:
Assay in all cases: NCI anticancer screen, dose series, 48 h
[1] = test system: K562
[2] = test system: UO-31
[3] = test system: OVCAR-4
[4] = test system: SNB-19
[5] = test system: IGROV-1
[6] = test system: LOX IMVI
[7] = test system: Malme-3M
[8] = test system: CCRF-CEM
[9] = test system: SF-295
[10] = test system: SR
[11] = test system: ACHN
[12] = test system: A498
[13] = test system: TK-10
[14] = test system: HCC 2998
[15] = test system: A549
[16] = test system: MDA-MB-435
[17] = test system: SK-MEL-5
[18] = test system: SF-268
[19] = test system: Hs-578T
[20] = test system: SK-OV-3
[21] = test system: RPMI-8226
[22] = test system: HCT-116
[23] = test system: SNB-75
[24] = test system: NCI-H522
[25] = test system: NCI/ADR-RES
[26] = test system: UACC-257
[27] = test system: MOLT-4
[28] = test system: COLO 205
[29] = test system: MCF7
[30] = test system: HT-29
[31] = test system: HOP-92
[32] = test system: MDA-MB-231
[33] = test system: OVCAR-3
[34] = test system: RXF 393
[35] = test system: EKVX
[36] = test system: NCI-H23
[37] = test system: MDA-N
[38] = test system: SW-620
[39] = test system: DU-145
[40] = test system: NCI-H226
[41] = test system: CAKI-1
[42] = test system: PC-3
[43] = test system: KM12
[44] = test system: U-251
[45] = test system: BT-549
[46] = test system: OVCAR-8
[47] = test system: SK-MEL-28
[48] = test system: NCI-H460
[49] = test system: HOP-62
[50] = test system: SN12C
[51] = test system: 786-0
[52] = test system: OVCAR-5
[53] = test system: UACC-62
[54] = test system: M14
[55] = test system: SK-MEL-2
[56] = test system: T47D
[57] = test system: HCT-15
[58] = test system: HL-60
[59] = test system: SF-539

## O=c1c2c3c(sc2nc2n1N=CN(c1ccc(F)cc1)C2)CCCC3
[1]
  GI50: > 100 µM (inactive)
[2]
  GI50: > 100 µM (inactive)
[3]
  GI50: > 100 µM (inactive)
[4]
  GI50: > 100 µM (inactive)
[5]
  GI50: > 100 µM (inactive)
[6]
  GI50: > 100 µM (inactive)
[7]
  GI50: > 100 µM (inactive)
[8]
  GI50: > 100 µM (inactive)
[9]
  GI50: > 100 µM (inactive)
[10]
  GI50: > 100 µM (inactive)
[11]
  GI50: > 100 µM (inactive)
[12]
  GI50: > 100 µM (inactive)
[13]
  GI50: > 100 µM (inactive)
[14]
  GI50: > 100 µM (inactive)
[15]
  GI50: > 100 µM (inactive)
[16]
  GI50: > 100 µM (inactive)
[17]
  GI50: > 100 µM (inactive)
[18]
  GI50: > 100 µM (inactive)
[19]
  GI50: > 100 µM (inactive)
[20]
  GI50: > 100 µM (inactive)
[21]
  GI50: > 100 µM (inactive)
[22]
  GI50: > 100 µM (inactive)
[23]
  GI50: > 100 µM (inactive)
[24]
  GI50: > 100 µM (inactive)
[25]
  GI50: > 100 µM (inactive)
[26]
  GI50: > 100 µM (inactive)
[27]
  GI50: > 100 µM (inactive)
[28]
  GI50: > 100 µM (inactive)
[29]
  GI50: > 100 µM (inactive)
[30]
  GI50: > 100 µM (inactive)
[31]
  GI50: > 100 µM (inactive)
[32]
  GI50: > 100 µM (inactive)
[33]
  GI50: > 100 µM (inactive)
[34]
  GI50: > 100 µM (inactive)
[35]
  GI50: > 100 µM (inactive)
[36]
  GI50: > 100 µM (inactive)
[37]
  GI50: > 100 µM (inactive)
[38]
  GI50: > 100 µM (inactive)
[39]
  GI50: > 100 µM (inactive)
[40]
  GI50: > 100 µM (inactive)
[41]
  GI50: > 100 µM (inactive)
[42]
  GI50: > 100 µM (inactive)
[43]
  GI50: > 100 µM (inactive)
[44]
  GI50: > 100 µM (inactive)
[45]
  GI50: > 100 µM (inactive)
[46]
  GI50: > 100 µM (inactive)
[47]
  GI50: > 100 µM (inactive)
[48]
  GI50: > 100 µM (inactive)
[49]
  GI50: > 100 µM (inactive)
[50]
  GI50: > 100 µM (inactive)
[51]
  GI50: > 100 µM (inactive)
[52]
  GI50: > 100 µM (inactive)
[53]
  GI50: > 100 µM (inactive)
[54]
  GI50: > 100 µM (inactive)
[55]
  GI50: > 100 µM (inactive)
[56]
  GI50: > 100 µM (inactive)
[57]
  GI50: > 100 µM

## CC12c3c4ccc(C=O)c3Oc3ccc(C=O)c(c31)Oc1ccc(C=O)c(c12)O4
[1]
  GI50: > 25 µM (inactive)
[2]
  GI50: > 25 µM (inactive)
[3]
  GI50: > 25 µM (inactive)
[4]
  GI50: > 25 µM (inactive)
[5]
  GI50: > 25 µM (inactive)
[6]
  GI50: > 25 µM (inactive)
[7]
  GI50: > 25 µM (inactive)
[8]
  GI50: 17.5 µM (inactive)
[9]
  GI50: > 25 µM (inactive)
[10]
  GI50: 7.11 µM (inactive)
[11]
  GI50: > 25 µM (inactive)
[12]
  GI50: > 25 µM (inactive)
[15]
  GI50: > 25 µM (inactive)
[16]
  GI50: > 25 µM (inactive)
[18]
  GI50: > 25 µM (inactive)
[19]
  GI50: > 25 µM (inactive)
[20]
  GI50: > 25 µM (inactive)
[21]
  GI50: > 25 µM (inactive)
[22]
  GI50: > 25 µM (inactive)
[23]
  GI50: > 25 µM (inactive)
[24]
  GI50: > 25 µM (inactive)
[25]
  GI50: > 25 µM (inactive)
[26]
  GI50: > 25 µM (inactive)
[27]
  GI50: > 25 µM (inactive)
[28]
  GI50: > 25 µM (inactive)
[29]
  GI50: > 25 µM (inactive)
[30]
  GI50: > 25 µM (inactive)
[31]
  GI50: > 25 µM (inactive)
[32]
  GI50: > 25 µM (inactive)
[33]
  GI50: > 25 µM (inactive)
[34]
  GI50: > 25 µM (inactive)
[35]
  GI50: > 25 µM (inactive)
[36]
  GI50: > 25 µM (inactive)
[37]
  GI50: > 25 µM (inactive)
[38]
  GI50: > 25 µM (inactive)
[58]
  GI50: > 25 µM (inactive)
[39]
  GI50: > 25 µM (inactive)
[40]
  GI50: > 25 µM (inactive)
[59]
  GI50: > 25 µM (inactive)
[41]
  GI50: > 25 µM (inactive)
[42]
  GI50: > 25 µM (inactive)
[43]
  GI50: > 25 µM (inactive)
[44]
  GI50: > 25 µM (inactive)
[45]
  GI50: > 25 µM (inactive)
[46]
  GI50: > 25 µM (inactive)
[47]
  GI50: > 25 µM (inactive)
[48]
  GI50: > 25 µM (inactive)
[49]
  GI50: > 25 µM (inactive)
[50]
  GI50: > 25 µM (inactive)
[51]
  GI50: > 25 µM (inactive)
[52]
  GI50: > 25 µM (inactive)
[53]
  GI50: > 25 µM (inactive)
[54]
  GI50: > 25 µM (inactive)
[55]
  GI50: > 25 µM (inactive)
[56]
  GI50: > 25 µM (inactive)
[57]
  GI50: > 25 µM

## COc1ccc(C(=O)/C=C/c2ccc(OCC(=N)N)cc2)cc1
[1]
  GI50: 3.44 µM (inactive)
[2]
  GI50: 19.8 µM (inactive)
[3]
  GI50: 14.7 µM (inactive)
[4]
  GI50: 15.8 µM (inactive)
[5]
  GI50: 18.2 µM (inactive)
[7]
  GI50: 17.9 µM (inactive)
[8]
  GI50: 4.06 µM (inactive)
[9]
  GI50: 16.3 µM (inactive)
[10]
  GI50: 5 µM (inactive)
[11]
  GI50: 17.6 µM (inactive)
[12]
  GI50: 13.6 µM (inactive)
[13]
  GI50: 21.4 µM (inactive)
[14]
  GI50: 16.6 µM (inactive)
[15]
  GI50: 17.7 µM (inactive)
[16]
  GI50: 19.3 µM (inactive)
[17]
  GI50: 17.3 µM (inactive)
[18]
  GI50: 17.3 µM (inactive)
[19]
  GI50: 16.4 µM (inactive)
[20]
  GI50: 12.9 µM (inactive)
[22]
  GI50: 4.55 µM (inactive)
[23]
  GI50: 5.73 µM (inactive)
[24]
  GI50: > 10 µM (inactive)
[25]
  GI50: 28.2 µM (inactive)
[26]
  GI50: 18.5 µM (inactive)
[27]
  GI50: 3.58 µM (inactive)
[28]
  GI50: 14.2 µM (inactive)
[29]
  GI50: 13.2 µM (inactive)
[30]
  GI50: 15.3 µM (inactive)
[31]
  GI50: 15.2 µM (inactive)
[32]
  GI50: 12.9 µM (inactive)
[33]
  GI50: 14.4 µM (inactive)
[34]
  GI50: 14.7 µM (inactive)
[35]
  GI50: 16.4 µM (inactive)
[36]
  GI50: 18.7 µM (inactive)
[37]
  GI50: 16.7 µM (inactive)
[38]
  GI50: 3.7 µM (inactive)
[39]
  GI50: 12.8 µM (inactive)
[40]
  GI50: 18.8 µM (inactive)
[59]
  GI50: 15.8 µM (inactive)
[41]
  GI50: > 10 µM (inactive)
[42]
  GI50: 14.7 µM (inactive)
[43]
  GI50: 12.6 µM (inactive)
[44]
  GI50: 13.9 µM (inactive)
[45]
  GI50: 17.9 µM (inactive)
[46]
  GI50: 14.3 µM (inactive)
[47]
  GI50: 15.3 µM (inactive)
[48]
  GI50: > 10 µM (inactive)
[49]
  GI50: 15.8 µM (inactive)
[50]
  GI50: 13.5 µM (inactive)
[51]
  GI50: 16.3 µM (inactive)
[52]
  GI50: 31.7 µM (inactive)
[53]
  GI50: 15.6 µM (inactive)
[54]
  GI50: 17 µM (inactive)
[56]
  GI50: 10.7 µM (inactive)
[57]
  GI50: 17.2 µM

Reference: ChEMBL document CHEMBL1201862, “PubChem BioAssay data set” (2004)
